Legend:
[1] = target: T1, human serotonin transporters (Homo sapiens, UniProt P31645); assay: Serotonin transporter binding assay ([3H]-citalopram competition, HEK-hSERT cell membranes); conditions: Table 1; HEK-hSERT membranes, [3H]-citalopram displacement; read-out: SERT IC50
T1 construct: expressed in transfected cells
Protocol: Serotonin transporter binding assay. HEK-293 cells that stably express human serotonin transporters (HEK-hSERT cells) were grown at 37° C. in 5% CO2 as a monolayer in medium consisting of EMEM supplemented with 10% fetal bovine serum and G418 sulfate (500 μg/ml). To prepare membranes for radioligand binding experiments, cells were rinsed twice with phosphate-buffered saline (138 mM NaCl, 4.1 mM KCl, 5.1 mM Na2PO4, 1.5 mM KH2PO4, 11.1 mM glucose, pH 7.4). Cells were transferred from plates to polypropylene tubes (16×100 mm), centrifuged at 1,200×g for 5 min and were frozen at −80° C. until assay. Following centrifugation, pellets were resuspended by homogenization in buffer consisting of 50 mM Tris (pH 7.7 at 25° C.), 120 mM NaCl and 5 mM KCl and then centrifuged at 32,000×g for 10 min. Following centrifugation, supernatants were discarded and pellets were resuspended in buffer consisting of 50 mM Tris (pH 7.4 at 25° C.), 150 mM NaCl and 5 mM KCl. Membrane homogenates (200 μl/plate) were incubated with 1 nM [^3H]-citalopram (specific activity=85 Ci/mmol) and increasing concentrations of test compounds for 1 hr at 25° C. in a total volume of 250 μl. The assay buffer consisted of 50 mM Tris (pH 7.4 at 25° C.), 120 mM NaCl and 5 mM KCl (pH 7.4 with conc. HCl). Plates were incubated for 1 hr at 25° C., then filtered through 0.5% PEI treated Whatman GF/B filters using a Brandel cell harvester. Filters were washed three times with 3 ml of ice-cold tris wash buffer. Non-specific binding was defined with 10 μM fluoxetine. Amount of radioligand bound in the presence and absence of competitor was analyzed by plotting (-)log drug concentration versus the amount of radioligand specifically bound. The midpoint of the displacement curve (IC50, nM), signifies the potency. Ki values can be calculated using the method of Cheng and Prusoff (Cheng and Prusoff, BiochemicalPharmacology, Vol 22, pp. 3099-3108, Pergamon Press (1973)).

[2] = target: T2, neurokinin-1 (NK-1) receptor (Homo sapiens, UniProt P25103); assay: NK-1 Binding assay ([125I] Substance P competition, U373 cell membranes); conditions: Table 1; U373 membranes, [125I] Substance P displacement; read-out: NK-1 IC50
T2 construct: a human glioblastoma-astrocytoma cell line that endogenously expresses the neurokinin-1 (NK-1) receptor; endogenous in cells; host or cells: U373 human glioblastoma-astrocytoma cells (membranes)
Protocol: NK-1 Binding assay. U373 cells, a human glioblastoma-astrocytoma cell line that endogenously expresses the neurokinin-1 (NK-1) receptor, were grown in a monolayer culture at 37° C. in 5% CO2 and fed with Minimum Essential Medium (MEM) supplemented with 10% fetal bovine serum. Membranes were prepared as follows: Cells were washed twice with ice-cold phosphate-buffered saline (pH 7.4) and then incubated for 5-10 minutes with ice-cold 10 mM Tris buffer (pH 7.4) containing 5 mM EDTA. Cells were removed from plates, homogenized, and centrifuged at 32,000×g for 20 minutes. The resulting supernatant was discarded, and the pellet resuspended by homogenization in 50 mM Tris buffer (pH 7.4) containing 1 mM EDTA and centrifuged at 32,000×g for 20 minutes. The resulting supernatant was discarded, and the pellet resuspended by homogenization in NK-1 binding assay buffer (50 mM Tris-HCL (pH 7.4), 3 mM MnCl2, 200 μg/ml BSA, 5 μg/ml chymostatin, 40 μg/ml bacitracin and 4 μg/ml leupeptin).
On the day of an experiment the membrane preparation was thawed, homogenized and diluted with NK-1 binding assay buffer to the appropriate concentration. […] Substance P, at a concentration of […], and concentrations of drugs ranging from 10000 to 0.01 nM. Samples were incubated for 30 min at 20° C. then filtered through GF/B glass fiber filters (pretreated with 1% polyethyleneimine and 0.3% Triton X-100) using a Brandel cell harvester. The filters were then washed with 10 ml ice cold 50 mM Tris-HCL (pH 7.4) containing 3 mM MgCl2. […] The amount of radioligand bound in the presence and absence of competitor was analyzed by plotting (-)log drug concentration versus the amount of radioligand specifically bound. The midpoint of the displacement curve (IC50, nM), signifies the potency.

T1 sequence (P31645 whole entry): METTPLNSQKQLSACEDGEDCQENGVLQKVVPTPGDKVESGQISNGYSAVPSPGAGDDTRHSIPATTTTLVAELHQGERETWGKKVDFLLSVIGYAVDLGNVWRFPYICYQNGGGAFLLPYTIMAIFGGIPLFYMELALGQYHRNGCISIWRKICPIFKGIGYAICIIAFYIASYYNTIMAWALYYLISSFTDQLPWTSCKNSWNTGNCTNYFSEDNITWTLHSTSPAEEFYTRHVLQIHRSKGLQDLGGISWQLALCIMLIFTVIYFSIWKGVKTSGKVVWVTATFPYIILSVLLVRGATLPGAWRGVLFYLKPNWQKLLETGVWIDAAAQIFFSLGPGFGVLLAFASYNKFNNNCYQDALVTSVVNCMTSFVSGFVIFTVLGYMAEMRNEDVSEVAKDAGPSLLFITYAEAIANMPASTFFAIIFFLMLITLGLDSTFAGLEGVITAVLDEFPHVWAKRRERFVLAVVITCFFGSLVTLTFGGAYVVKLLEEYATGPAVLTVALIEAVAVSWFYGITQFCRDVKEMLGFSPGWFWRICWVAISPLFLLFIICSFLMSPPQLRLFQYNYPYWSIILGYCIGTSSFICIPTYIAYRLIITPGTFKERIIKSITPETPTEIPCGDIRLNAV
T2 sequence (P25103 whole entry): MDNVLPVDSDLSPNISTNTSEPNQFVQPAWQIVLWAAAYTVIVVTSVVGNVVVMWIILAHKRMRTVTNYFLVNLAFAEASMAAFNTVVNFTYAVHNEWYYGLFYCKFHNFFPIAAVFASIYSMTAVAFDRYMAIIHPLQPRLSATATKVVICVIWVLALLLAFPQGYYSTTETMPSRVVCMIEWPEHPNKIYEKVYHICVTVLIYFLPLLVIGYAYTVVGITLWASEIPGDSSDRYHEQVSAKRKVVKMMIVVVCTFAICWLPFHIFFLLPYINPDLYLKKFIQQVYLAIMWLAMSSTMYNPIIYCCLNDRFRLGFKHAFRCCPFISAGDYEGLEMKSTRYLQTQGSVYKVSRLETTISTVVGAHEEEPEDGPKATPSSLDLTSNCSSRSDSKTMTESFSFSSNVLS

| IC50 [1] [nM] | IC50 [2] [nM] | SMILES |
| --- | --- | --- |
| 0.01 to 100 | 0.01 to 100 | FC(F)(F)c1cc(COCC2(c3ccccc3)CCNCC2)cc(-c2ccncc2Cl)c1 |
| 0.01 to 100 | 0.01 to 100 | Cc1cnccc1-c1cc(COCC2(c3ccccc3)CCNCC2)cc(C(F)(F)F)c1 |
| 0.01 to 100 | 0.01 to 100 | Cc1cc(-c2cc(COCC3(c4ccccc4)CCNCC3)cc(C(F)(F)F)c2)ccn1 |
| 0.01 to 100 | 0.01 to 100 | FC(F)(F)c1cc(COCC2(c3ccccc3)CCNCC2)cc(-c2ccncc2)c1 |
| 0.01 to 100 | 0.01 to 100 | N#Cc1ccc(-c2cc(COCC3(c4ccccc4)CCNCC3)cc(C(F)(F)F)c2)cc1 |
| 0.01 to 100 | 0.01 to 100 | CCOc1ccc(-c2cc(COCC3(c4ccccc4)CCNCC3)cc(C(F)(F)F)c2)cc1 |
| 0.01 to 100 | 0.01 to 100 | FC(F)(F)c1cccc(-c2cc(COCC3(c4ccccc4)CCNCC3)cc(C(F)(F)F)c2)c1 |
| 0.01 to 100 | 0.01 to 100 | COc1ccccc1-c1cc(COCC2(c3ccccc3)CCNCC2)cc(C(F)(F)F)c1 |
| 0.01 to 100 | > 300 | FC(F)(F)c1cc(COCC2(c3ccccc3)CCNCC2)cc(-c2cccc3c2oc2ccccc23)c1 |
| 0.01 to 100 | 0.01 to 100 | FC(F)(F)c1cc(COCC2(c3ccccc3)CCNCC2)cc(-c2ccccc2Cl)c1 |
| 0.01 to 100 | 0.01 to 100 | Fc1cccc(F)c1-c1cc(COCC2(c3ccccc3)CCNCC2)cc(C(F)(F)F)c1 |
| 0.01 to 100 | 0.01 to 100 | COc1ccc(-c2cc(COCC3(c4ccccc4)CCNCC3)cc(C(F)(F)F)c2)cc1F |
| 0.01 to 100 | 0.01 to 100 | Fc1ccc(-c2cc(COCC3(c4ccccc4)CCNCC3)cc(C(F)(F)F)c2)cc1F |
| 100 to 300 | 0.01 to 100 | CCCCCc1ccc(-c2cc(COCC3(c4ccccc4)CCNCC3)cc(C(F)(F)F)c2)cc1 |
| 100 to 300 | > 300 | FC(F)(F)c1cc(COCC2(c3ccccc3)CCNCC2)cc(-c2ccccc2Oc2ccccc2)c1 |
| 100 to 300 | 100 to 300 | Cc1cccc(C)c1-c1cc(COCC2(c3ccccc3)CCNCC2)cc(C(F)(F)F)c1 |
| 0.01 to 100 | 0.01 to 100 | FC(F)(F)c1cc(COCC2(c3ccccc3)CCNCC2)cc(-c2ccc3c(c2)OCO3)c1 |
| > 300 | > 300 | CC(C)(C)c1ccc(-c2cc(COCC3(c4ccccc4)CCNCC3)cc(C(F)(F)F)c2)cc1 |
| 0.01 to 100 | 0.01 to 100 | COc1ccc(-c2cc(COCC3(c4ccccc4)CCNCC3)cc(C(F)(F)F)c2)c(OC)c1 |
| 0.01 to 100 | 0.01 to 100 | Oc1cccc(-c2cc(COCC3(c4ccccc4)CCNCC3)cc(C(F)(F)F)c2)c1 |
| 0.01 to 100 | 0.01 to 100 | Oc1ccc(-c2cc(COCC3(c4ccccc4)CCNCC3)cc(C(F)(F)F)c2)cc1 |
| 0.01 to 100 | 0.01 to 100 | FC(F)(F)c1cc(COCC2(c3ccccc3)CCNCC2)cc(-c2ccc(Cl)c(Cl)c2)c1 |
| 0.01 to 100 | 0.01 to 100 | FC(F)(F)Oc1ccc(-c2cc(COCC3(c4ccccc4)CCNCC3)cc(C(F)(F)F)c2)cc1 |
| 0.01 to 100 | 100 to 300 | CC(=O)c1ccc(-c2cc(COCC3(c4ccccc4)CCNCC3)cc(C(F)(F)F)c2)cc1 |
| 0.01 to 100 | 100 to 300 | OCc1ccccc1-c1cc(COCC2(c3ccccc3)CCNCC2)cc(C(F)(F)F)c1 |
| 0.01 to 100 | > 300 | Fc1cc(-c2cc(COCC3(c4ccccc4)CCNCC3)cc(C(F)(F)F)c2)ccc1-c1ccccc1 |
| 100 to 300 | 100 to 300 | COc1c(C)cc(-c2cc(COCC3(c4ccccc4)CCNCC3)cc(C(F)(F)F)c2)cc1C |

— US20070249607A1, “NK-1 AND SEROTONIN TRANSPORTER INHIBITORS” (Bristol-Myers Squibb Company, priority 2006, published 2007)
